Laboratory results: patent publication US5614562A, “Method of treating drug resistant tumor cells using organoselenones” (The University of Sourthern California, priority 1992, dated 1997)
≈ marks a conversion by molar mass, not a printed value. Where two headings read alike, the source gives them in different places.

Key:
L1210/0 [1] = assay: Cytotoxicity, 48-hr exposure of L1210/0 leukemia cells; format: cell-based, murine; conditions: read-out: IC50 L1210/0
From the text: (§1) Murine L1210 leukemia cells sensitive (L1210/0) and resistant (L1210/L-PAM)to L-phenylalanine mustard were obtained that are adaptable to either in vitro or in vivo passage.
(§2) Broad resistance of the L1210/L-PAM cell line is shown by the approximately 4-fold and 9-fold increases in IC50, compared to L1210/0, for L-PAM and mechlorethamine, respectively (Comparative Examples 3 and 4). […].

L1210/L-PAM [2] = assay: Cytotoxicity, 48-hr exposure of L-PAM resistant L1210/L-PAM leukemia cells; format: cell-based, murine; conditions: for IC50: read-out: IC50 L1210/L-PAM; for fold increase in IC50, L1210/L-PAM compared to L1210/0: 48-h exposure
From the text: as §1, §2

HCT/VM46 = assay: In vitro cytotoxicity, VM26 resistant HCT/VM46 human colon carcinoma; format: cell-based; conditions: for IC50 HCT/VM46 / IC50: VM26 resistant, data provided by Bristol-Myers Laboratories; for ratio of IC50 values HCT/VM46 vs HCT116: IC50 divided by IC50 for HCT116; for IC50: Homo sapiens; for fold increase in IC50, HCT/VM46: vs HCT116
From the text: | HCT/VM46 human colon, VM26 resistant

HCT/VP35 = assay: In vitro cytotoxicity, VP16 resistant HCT/VP35 human colon carcinoma; format: cell-based; conditions: for IC50 HCT/VP35 / IC50: VP16 resistant, data provided by Bristol-Myers Laboratories; for ratio of IC50 values HCT/VP35 vs HCT116: IC50 divided by IC50 for HCT116; for IC50: Homo sapiens, HCT/VP35; for fold increase in IC50, HCT/VP35: vs HCT116
From the text: | HCT/VP35 human colon, VP16 resistant

HCT116 = assay: In vitro cytotoxicity, HCT116 human colon carcinoma; format: cell-based; conditions: data provided by Bristol-Myers Laboratories; for IC50: Homo sapiens, HCT-116
From the text: ^b Cell lines: HCT116 human colon (sensitive to VP16 and VM26)

L1210/0 [3] = conditions: cited from earlier work
L1210/L-PAM [4] = conditions: L1210/L-PAM line; cited from earlier work
[5] = tested on: HT29 human colon carcinoma cells; assay: Growth inhibition cytotoxicity against HT29 human colon carcinoma cells (MER(+)); format: cell-based; conditions: HT-29
From the text: (Example 15) These cells are very high in the alkyltransferase enzyme for repair of DNA guanine O6-alkyl products, and therefore are considered strongly MER(+) in phenotype. Levels of this enzyme in HT29 cells have averaged about 0.5 pmol/mg protein in recent studies (K. Chan, et al., unpublished). […] Thus, the lack of cross-resistance to ethyleneimines by the present invention of 2-chloroethyl aryl selenones is not associated with resistence mediated by the alkyltransferase repair enzyme.

[6] = compared with chlorambucil; cited from earlier work
[7] = Mus musculus, L1210/0, 48-hr exposure
[8] = Mus musculus, L1210/LPAM, 48-hr exposure

(CH3)2 NCSeCH2 CH2 Cl
IC50 (L1210/0 [1]; 48-hr exposure): 18 µM | Ratio of IC50s (L1210/L-PAM vs L1210/0) (L1210/L-PAM [2]; 48-hr exposure): 1.7 | IC50 (L1210/L-PAM [2]; 48-hr exposure): 30 µM

2,6Bis(3-methanesulfonylpropylseleno)lutidine [Lutidine Derivative]
IC50 HCT/VM46 (HCT/VM46): > 15.6 mg/L | IC50 HCT/VP35 (HCT/VP35): > 15.6 mg/L | IC50 (L1210/0 [1]; 48-hr exposure): 12 µM | Ratio of IC50s (L1210/L-PAM vs L1210/0) (L1210/L-PAM [2]; 48-hr exposure): 2.3 | IC50 (L1210/L-PAM [2]; 48-hr exposure): 28 µM | IC50 HCT116 (HCT116): > 15.6 mg/L

CS(=O)(=O)OCCCCOS(C)(=O)=O [Busulfan]
IC50 (L1210/0 [1]; [7]): 55 µM | Ratio of IC50s (L1210/L-PAM vs L1210/0) (L1210/L-PAM [2]; 48-hr exposure): 1.1 | IC50 (L1210/L-PAM [2]; [8]): 60 µM

S=P(N1CC1)(N1CC1)N1CC1 [thioTEPA]
sensitivity of parent L1210/0 line (L1210/0 [3]): sensitive | in vivo resistance (log cell kill differential) (L1210/L-PAM [4]): 4 log

NC(=O)N(CCCl)N=O [chloroethylnitrosourea (CNU), chloroethylnitrosourea, reference compound]
IC50 [5]: 250 µM

O=NN(CCCl)C(=O)NCCCl [BCNU, carmustine]
sensitivity of parent L1210/0 line (L1210/0 [3]): sensitive

O=P1(N(CCCl)CCCl)NCCCO1 (stereo not drawn) [cyclophosphamide]
sensitivity of parent L1210/0 line (L1210/0 [3]): sensitive | in vivo resistance (log cell kill differential) (L1210/L-PAM [4]): > 2 log

CS(=O)(=O)CS(=O)(=O)OCCCl [Clomesone]
nucleophilic selectivity [6]: relatively high nucleophilic selectivity approaching that of chlorambucil

3-methanesulfonylpropyl phenyl selenone
ratio of IC50 values HCT/VM46 vs HCT116 (HCT/VM46): 0.8 | IC50 HCT/VM46 (HCT/VM46): 4.93 mg/L | ratio of IC50 values HCT/VP35 vs HCT116 (HCT/VP35): 0.8 | IC50 HCT/VP35 (HCT/VP35): 5.15 mg/L | IC50 HCT116 (HCT116): 6.34 mg/L

N[C@@H](Cc1ccc(N(CCCl)CCCl)cc1)C(=O)O [L-Phenylalanine Mustard (L-PAM), L-Phenylalanine Mustard]
sensitivity of parent L1210/0 line (L1210/0 [3]): sensitive | IC50 (L1210/0 [1]; Mus musculus, L1210/0, 48 h): 1.6 µM | fold increase in IC50, L1210/L-PAM compared to L1210/0 (L1210/L-PAM [2]): approximately 4 fold | Ratio of IC50s (L1210/L-PAM vs L1210/0) (L1210/L-PAM [2]; 48-hr exposure): 4.4 | IC50 (L1210/L-PAM [2]; Mus musculus, L1210/LPAM, 48 h): 7 µM | in vivo resistance (log cell kill differential) (L1210/L-PAM [4]): 4 log

CS(=O)(=O)OCCC[Se]c1ccccc1 [PhSeCH2 CH2 CH2 OMs]
IC50 (L1210/0 [1]; [7]): 52 µM | Ratio of IC50s (L1210/L-PAM vs L1210/0) (L1210/L-PAM [2]; 48-hr exposure): 1.9 | IC50 (L1210/L-PAM [2]; [8]): 100 µM

COc1cc([C@@H]2c3cc4c(cc3[C@@H](O[C@@H]3O[C@@H]5CO[C@@H](C)O[C@H]5[C@H](O)[C@H]3O)[C@H]3COC(=O)[C@H]23)OCO4)cc(OC)c1O [VP-16 (Etoposide), Etoposide]
IC50 (HCT/VM46): 1.48 mg/L (≈ 2.51 µM) | ratio of IC50 values HCT/VM46 vs HCT116 (HCT/VM46): 3.2 | fold increase in IC50, HCT/VM46 (HCT/VM46): 3.2 fold | IC50 (HCT/VP35): 4.62 mg/L (≈ 7.85 µM) | ratio of IC50 values HCT/VP35 vs HCT116 (HCT/VP35): 10.0 | fold increase in IC50, HCT/VP35 (HCT/VP35): 10.0 fold | IC50 (HCT116): 0.46 mg/L (≈ 0.782 µM)

CS(=O)(=O)OCCC[Se]CCCOS(C)(=O)=O [(MsOCH2 CH2 CH2)2 Se]
IC50 (L1210/0 [1]; [7]): 2.3 µM | fold increase in IC50, L1210/L-PAM compared to L1210/0 (L1210/L-PAM [2]): 7 fold | Ratio of IC50s (L1210/L-PAM vs L1210/0) (L1210/L-PAM [2]; 48-hr exposure): 7.0 | IC50 (L1210/L-PAM [2]; [8]): 16 µM

COc1cc([C@@H]2c3cc4c(cc3[C@@H](O[C@@H]3O[C@@H]5CO[C@@H](c6cccs6)O[C@H]5[C@H](O)[C@H]3O)[C@H]3COC(=O)[C@H]23)OCO4)cc(OC)c1O [VM-26 (Teniposide), Teniposide]
IC50 (HCT/VM46): 0.17 mg/L (≈ 0.259 µM) | ratio of IC50 values HCT/VM46 vs HCT116 (HCT/VM46): 4.9 | fold increase in IC50, HCT/VM46 (HCT/VM46): 4.9 fold | IC50 (HCT/VP35): 0.53 mg/L (≈ 0.807 µM) | ratio of IC50 values HCT/VP35 vs HCT116 (HCT/VP35): 15.1 | fold increase in IC50, HCT/VP35 (HCT/VP35): 15.1 fold | IC50 (HCT116): 0.035 mg/L (≈ 0.0533 µM)
